{
  "source": "patent US20200022995A1",
  "about": "“Novel Immunodulating Small Molecules” (AyuVis Research, Inc., priority 2018, published 2020)",
  "key": {"THP-1 cells": {"test_system": "THP-1 cells", "test": "Monocyte differentiation, phagocytosis and intracellular killing of Pseudomonas aeruginosa in THP-1 cells", "format": "cell-based, human", "text": "Two of these compounds 8 and 32 stimulated monocyte differentiation into macrophages, increased phagocytosis of Pseudomonas aeruginosa (FIG. 18) and increased intracellular killing of bacteria (FIG. 19). These compounds have potential to be used as vaccine adjuvants and in combination with existing antibiotic for prophylactic treatment such as in cystic fibrosis patients."}, "TLR6": {"molecular_target": "T1, TLR6 (Homo sapiens, UniProt Q9Y2C9)", "T1 construct": "in combination with TLR6 ligand Pam2CSK4 in hPBMC after 24 h of treatment; endogenous in cells; host or cells: hPBMC", "T1 sequence (Q9Y2C9 32-796)": "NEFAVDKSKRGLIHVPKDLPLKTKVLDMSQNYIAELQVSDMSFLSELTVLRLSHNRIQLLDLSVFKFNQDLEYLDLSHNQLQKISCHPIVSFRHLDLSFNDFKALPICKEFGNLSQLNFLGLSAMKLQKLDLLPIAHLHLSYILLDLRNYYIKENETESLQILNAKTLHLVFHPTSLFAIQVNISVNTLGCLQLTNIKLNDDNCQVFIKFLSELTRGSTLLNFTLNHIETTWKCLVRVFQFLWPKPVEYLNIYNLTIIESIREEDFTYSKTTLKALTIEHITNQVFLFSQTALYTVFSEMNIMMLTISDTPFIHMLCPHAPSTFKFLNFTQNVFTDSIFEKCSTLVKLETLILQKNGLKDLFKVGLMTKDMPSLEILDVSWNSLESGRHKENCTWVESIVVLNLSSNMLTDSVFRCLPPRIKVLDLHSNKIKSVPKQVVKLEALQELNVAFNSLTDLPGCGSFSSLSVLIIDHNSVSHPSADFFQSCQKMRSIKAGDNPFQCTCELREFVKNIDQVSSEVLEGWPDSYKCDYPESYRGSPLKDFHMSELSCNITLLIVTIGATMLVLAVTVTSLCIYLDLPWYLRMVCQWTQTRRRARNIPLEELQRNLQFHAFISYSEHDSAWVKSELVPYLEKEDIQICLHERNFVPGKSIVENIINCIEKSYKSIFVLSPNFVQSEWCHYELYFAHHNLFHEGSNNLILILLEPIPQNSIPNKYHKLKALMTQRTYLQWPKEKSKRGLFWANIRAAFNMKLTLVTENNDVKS", "test": "IL-6 ELISA in hPBMC with TLR6 ligand Pam2CSK4", "format": "cell-based", "settings": "24 h", "protocol": "Compound 8 stimulates the TLR6 activities and upregulates the production of IL-6 cytokine in combination with TLR6 ligand Pam2CSK4 in hPBMC after 24 h of treatment as detected by ELISA (FIG. 9)."}, "TLR1/2": {"molecular_target": "T2, TLR1/2 (Homo sapiens, UniProt O60603)", "T2 construct": "downregulate the IL-6 protein level in hPBMC after 24 h; endogenous in cells; host or cells: hPBMC", "T2 sequence (O60603 21-784)": "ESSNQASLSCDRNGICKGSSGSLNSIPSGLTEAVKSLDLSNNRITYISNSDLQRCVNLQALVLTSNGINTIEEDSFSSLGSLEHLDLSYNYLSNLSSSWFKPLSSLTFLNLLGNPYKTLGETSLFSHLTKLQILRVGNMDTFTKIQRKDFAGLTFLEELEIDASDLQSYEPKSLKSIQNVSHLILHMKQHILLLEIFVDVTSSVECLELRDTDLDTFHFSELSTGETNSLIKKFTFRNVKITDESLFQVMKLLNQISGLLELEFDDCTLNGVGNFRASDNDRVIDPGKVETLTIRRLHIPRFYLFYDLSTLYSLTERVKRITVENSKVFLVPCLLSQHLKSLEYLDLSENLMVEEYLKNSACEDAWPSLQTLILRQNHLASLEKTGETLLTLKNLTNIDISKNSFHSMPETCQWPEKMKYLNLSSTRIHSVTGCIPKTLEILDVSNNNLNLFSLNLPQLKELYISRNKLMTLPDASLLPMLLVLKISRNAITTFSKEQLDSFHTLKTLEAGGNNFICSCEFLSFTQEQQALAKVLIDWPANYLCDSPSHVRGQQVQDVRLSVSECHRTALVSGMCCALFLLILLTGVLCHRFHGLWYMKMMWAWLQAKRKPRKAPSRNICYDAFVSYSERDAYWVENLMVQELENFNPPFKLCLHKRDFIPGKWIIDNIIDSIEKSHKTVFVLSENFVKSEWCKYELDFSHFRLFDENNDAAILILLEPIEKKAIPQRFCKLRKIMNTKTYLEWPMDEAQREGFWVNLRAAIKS", "test": "IL-6 ELISA in hPBMC with TLR1/2 ligand Pam3CSK4", "format": "cell-based", "settings": "0.1 μM to <1 μM, 24 h", "text": "Compound 8 modulates the TLR1/2 activities in a concentration dependent manner."}, "TLR9": {"molecular_target": "T3, TLR9 (Homo sapiens, UniProt Q9NR96)", "T3 construct": "endogenous in cells; host or cells: hPBMC", "T3 sequence (Q9NR96 26-1032)": "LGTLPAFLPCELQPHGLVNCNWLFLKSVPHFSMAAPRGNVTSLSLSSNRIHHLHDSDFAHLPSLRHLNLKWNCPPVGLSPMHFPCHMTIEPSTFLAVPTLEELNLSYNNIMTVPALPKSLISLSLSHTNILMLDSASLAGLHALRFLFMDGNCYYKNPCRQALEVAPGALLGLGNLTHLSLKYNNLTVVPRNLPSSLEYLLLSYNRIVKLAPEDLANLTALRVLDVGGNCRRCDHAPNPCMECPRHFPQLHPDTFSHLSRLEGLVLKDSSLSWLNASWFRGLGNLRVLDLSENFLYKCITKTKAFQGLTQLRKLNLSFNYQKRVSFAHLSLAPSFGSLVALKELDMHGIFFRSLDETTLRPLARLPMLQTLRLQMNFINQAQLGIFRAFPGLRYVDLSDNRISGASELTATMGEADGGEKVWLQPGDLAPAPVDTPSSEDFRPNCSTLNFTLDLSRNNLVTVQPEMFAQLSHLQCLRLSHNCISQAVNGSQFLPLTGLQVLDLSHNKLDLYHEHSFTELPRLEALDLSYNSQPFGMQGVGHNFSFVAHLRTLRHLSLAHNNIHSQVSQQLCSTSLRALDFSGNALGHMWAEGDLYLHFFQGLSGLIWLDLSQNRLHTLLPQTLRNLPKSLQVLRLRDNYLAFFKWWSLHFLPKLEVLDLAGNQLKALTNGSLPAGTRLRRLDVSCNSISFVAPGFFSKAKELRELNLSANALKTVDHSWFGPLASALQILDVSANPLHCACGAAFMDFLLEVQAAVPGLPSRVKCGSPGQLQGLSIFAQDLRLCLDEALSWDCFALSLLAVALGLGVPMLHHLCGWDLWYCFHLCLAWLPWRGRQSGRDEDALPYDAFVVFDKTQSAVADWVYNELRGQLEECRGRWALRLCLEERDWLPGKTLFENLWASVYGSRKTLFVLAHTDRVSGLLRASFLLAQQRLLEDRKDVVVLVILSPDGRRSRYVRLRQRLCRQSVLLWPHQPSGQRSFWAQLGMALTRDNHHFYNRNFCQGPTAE", "test": "IFN-α ELISA in hPBMC with TLR9 ligand ODN2216", "format": "cell-based", "settings": "48 h", "protocol": "Compound 8 antagonizes the TLR9 activities and downregulates the production of IFN-α in combination with TLR9 ligand ODN2216 in hPBMC after 48 h of treatment as detected by ELISA (FIG. 11)."}, "HUVECs": {"test_system": "HUVECs", "test": "Cytotoxicity in HUVECs (MTT)", "format": "cell-based, human", "settings": "100 μM, 24 h", "protocol": "Selected TLR2/4 antagonist compounds 2, 6, 7, 8, 14, 17 and 32 were evaluated for cytotoxicity in HUVECs at 100 μM concentration. The cells were treated with compounds and incubated for 24 h. Cell viability was assessed using MTT cell proliferation kit (Promega). All the compounds were not toxic to HUVECs (FIG. 15)."}},
  "data": [
    {"compound": "CC(=O)N[C@H]1[C@H](Oc2ccc([N+](=O)[O-])cc2)O[C@H](CO)[C@@H](O)[C@@H]1O", "note": "[Compound 8, p-Nitrophenyl 2-acetamido-2-deoxy-β-D-glucopyranoside]", "values": [
      {"measurement": "monocyte differentiation into macrophages", "setting": "THP-1 cells", "value": "stimulated"},
      {"measurement": "intracellular killing of bacteria", "setting": "THP-1 cells; Pseudomonas aeruginosa, THP-1 cells", "value": "increased"},
      {"measurement": "phagocytosis of Pseudomonas aeruginosa", "setting": "THP-1 cells; THP-1 cells", "value": "increased"},
      {"measurement": "production of IL-6 cytokine", "setting": "TLR6", "value": "upregulates"},
      {"measurement": "IL-6 protein level", "setting": "TLR1/2", "value": "downregulate"},
      {"measurement": "production of IFN-α", "setting": "TLR9", "value": "downregulates"},
      {"measurement": "cytotoxicity in HUVECs", "setting": "HUVECs", "value": "not toxic"}
    ]}
  ]
}
